Measurements: PubChem BioAssay AID1626 (SRMLSC, 2009)

Test system: M. tuberculosis H37Rv growth inhibition
Experiment: M. tuberculosis H37Rv growth inhibitors, H37Rv strain (AID 1626)
Settings: for IC90: measured here: IC90 against H37Rv; for CC50: measured here: Vero cell cytotoxicity

SMILES	IC50 [µM]	IC90 [µM]	CC50 [µM]
CC(C)N1CCC2(CC1)N=C(c1ccc3c(c1)OCO3)CC(c1cc(Cl)ccc1O)N2 (stereo not drawn)	8.26	12.4	12.5
Cc1ccc(Nc2c(-c3ccccn3)nc3cc(C)ccn23)cc1	1.38	1.55	1.39
COc1ccccc1N1CCN(Cc2nc(N)nc(Nc3ccc(C)c(Cl)c3)n2)CC1	8.35	18.7	> 40
NC1=NC[C@H](Cc2ccc(O)cc2)N1CCCCC1CCCCC1	5.33	7.7	–
CC(C)(C)c1cc(NCCCn2ccnc2)n2ncc(-c3ccccc3)c2n1	1.76	2.89	15.9
COc1cc(CNC23CC4CC(CC(C4)C2)C3)ccc1OCc1ccccc1	2.94	3.35	> 40
O=C(CSc1nnc(NC(=O)c2ccccc2Cl)s1)Nc1ccc2c(c1)oc1ccccc12	–	–	> 40
Cc1nc2ccc(NC(=O)N(C(C)C)C(C)C)cc2s1	20.2	> 100	–
Cc1ccc2[nH]c3c(N4CCc5ccccc5C4)ncnc3c2c1	11.8	25.8	10.8
Clc1ccc(-c2nnc(SCc3nc4ccccc4s3)o2)cc1	5.3	> 100	–
CC(C)c1c(O)nc(SCC(=O)Nc2ccc3c(c2)CCC3)[nH]c1=O	32.8	> 100	–
COc1ccc(-c2csc(-c3cccs3)n2)cc1OC	11.3	> 100	–
CCc1ccc(-c2nn(-c3ccccc3)cc2CSC(=N)N)cc1	6.73	10.7	14
O=C(Cc1cccs1)N1CCN=C1SCc1ccc(Br)cc1	–	> 100	–
CCOCC(=O)Nc1ccc(OCc2ccccc2)cc1	29.5	> 100	–
Nc1ccc(Oc2ccc(Br)cc2)cc1	30.8	> 100	–
Oc1cccc2ccc(/C=C/c3c(F)cccc3Cl)nc12	1.37	6.64	> 40
Nc1c2c(nc3ccc(Br)cc13)N(C1CCCCC1)CC2	8.28	11.1	> 40
Clc1ccc2nc(-c3ccccn3)c(Nc3ccc4c(c3)OCO4)n2c1	2.56	4.43	11.1
CC(=O)OCCNc1cc(SCc2ccco2)c2nonc2c1[N+](=O)[O-]	0.657	1.66	–

SMILES	IC50 [µM]	IC90 [µM]	CC50 [µM]
COc1ccc(C(C(=O)NC2CCCCC2)N(C(=O)c2sc(C)nc2C)c2ccccc2C)cc1 (stereo not drawn)	6.96	11.4	> 40
CCOc1ccc(N2C(=O)c3ccccc3C2=O)cc1	–	> 100	–
O=C(/C=C/c1ccccc1F)c1cccc([N+](=O)[O-])c1	6.24	6.73	> 40
Oc1cc(-c2ccccc2)c2ccccc2c1	27.2	> 100	> 40
O=C(Nc1nnc(-c2ccncc2)o1)c1ccc(Br)s1	15	29.7	20.6
O=C(c1c[nH]c(C(=O)N2CCN(c3ccccc3F)CC2)c1)c1cccc(Cl)c1Cl	–	–	16.9
O=C(Nc1cccc2ccccc12)c1ccc([N+](=O)[O-])s1	51.4	> 100	–
Cc1cc(C(=O)CCl)c(C)n1-c1cccc([N+](=O)[O-])c1	8.96	15.7	20.3
COc1ccc2cc(C(=O)C3CCCN(Cc4cnc(C)s4)C3)ccc2c1 (stereo not drawn)	13.6	> 100	–
CCCCCc1cc(=O)oc2c(C(CCN3CCCC(C)C3)c3cc(OC)c(OC)c(OC)c3)c(OC)cc(OC)c12 (stereo not drawn)	7.65	9.84	14.5
Cc1ccc(-n2cc(CN3CCC(CO)(Cc4cccc(C(F)(F)F)c4)CC3)cn2)cc1	4.31	7.09	23.7
CCOC(=O)CSc1nnc(-c2ccccc2NC(=O)c2ccccc2)o1	2.75	> 100	–
CC[C@H]1CC2CN3CCc4c([nH]c5c([C@H]6C[C@H]7[C@H](CC)CN(C)[C@@H](Cc8c6[nH]c6ccccc86)[C@H]7C(=O)OC)c(OC)ccc45)C(C(=O)OC)(C2)C13	5.85	7.6	20.8
CCCCCCOc1cccc(N)c1	16.9	> 100	–
c1ccc(N2CCN(c3nc(NCc4ccco4)c4ccccc4n3)CC2)cc1	9.66	14.4	> 40
Cc1cc(Nc2ccccc2)nc(NCc2ccccc2)n1	10.9	14.4	23.3
CN1C[C@@H]2C(c3ccc(C(F)(F)F)cc3)C3(c4cccnc4)CC2(C3)[C@H]1c1ccccc1 (stereo partly drawn)	14.1	21.4	–
Cc1cccc(/C=c2\s/c(=C\C(=O)C(C)(C)C)[nH]c2=O)c1	0.465	11.6	29
Cc1cccc(N=Nc2c(N)n[nH]c2-c2ccc(Cl)cc2)c1	59.1	> 100	–
CCn1ccnc1CN(C)Cc1cn(-c2cccc(C)c2)nc1-c1cccc(F)c1	2.58	4.19	> 40

SMILES	IC50 [µM]	IC90 [µM]	CC50 [µM]
N#C/C(=C\c1ccccn1)c1nc2ccccc2s1	14.9	> 100	> 40
CCCCCOC(=O)c1ccc(OC(=O)c2cncc(Br)c2)cc1	11.6	> 100	–
O=C(Oc1ccc2cc(Br)ccc2c1)c1cccnc1	1.38	> 100	> 40
CC1CCN(c2nc(-c3cccnc3)nc3scc(-c4ccccc4)c23)CC1	5.94	65.3	–
CCOc1ccc2ncc(S(=O)(=O)c3ccc(C)cc3)c(N3CCC4(CC3)OCCO4)c2c1	28.2	> 100	> 40
COc1ccc(N=Cc2cc(Cl)ccc2O)cc1Cl	7.49	> 100	–
O=C1C(=O)c2ccc(-c3ccccc3)cc2-c2ccccc21	1.47	1.66	3.09
CC(C)(C)C(=O)/C=c1\s/c(=C\c2ccc(-c3ccc([N+](=O)[O-])cc3)o2)c(=O)n1CC(=O)NC(N)=O	–	> 100	> 40
CCOC(=O)COc1ccc2c(=O)c(-c3ccccc3)coc2c1	< 0.195	0.755	–
Cc1ncn(-c2ccc(C(=O)Oc3ccccc3)cn2)n1	12.3	> 100	35.3
CCOC(=O)COc1ccc2c(=O)cc(-c3ccccc3)oc2c1	< 0.195	0.963	–
CSc1ccc(/C=C/C(=O)c2ccc(NC(=O)Cc3ccccc3)cc2)cc1	4.66	> 100	> 40
O=C(CSCc1nc2ccccc2[nH]1)Nc1ccc(Oc2ccccc2)cc1	22.9	> 100	> 40
Nc1cnn(Cc2ccc(F)cc2)c1	–	> 100	–
Nc1ccc2oc(-c3cc(Br)ccc3Cl)nc2c1	18.6	> 100	–
Cc1ccc(CSc2nnc(CCCCCNC(=O)OC(C)(C)C)o2)cc1	11.7	13.6	–
Cn1c(-c2c(N)n(-c3ccccc3)c3nc4ccccc4nc23)nc2ccccc21	0.331	> 100	> 40
COc1cccc(C2C(C(=O)Nc3nc4ccccc4s3)=C(C)NC3=C2C(=O)CC(C)(C)C3)c1OC (stereo not drawn)	–	> 100	> 40
O=C(NCCC1=CCCCC1)NC12CC3CC(CC(C3)C1)C2	< 0.195	67.6	–
